# Test results: PubChem BioAssay AID1195 (EPA DSSTox, 2008)
# Test system: human maximum recommended daily dose, FDA database
# Test: DSSTox (FDAMDD) FDA Maximum (Recommended) Daily Dose Database
# Details: stronger effect = lower value
# Procedure, shortened: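 MRDD values come from clinical trials with daily oral dosing, usually for 3–12 months, for the average adult, in mg/day converted to mg/kg-bw/day assuming 60 kg. Antineoplastic mg/m2 doses are divided by 37. Activity score maps log10(1/MRDD mmol) onto 1–100.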
# [1] = TherapeuticCategory: anti inflammatory
# [2] = TherapeuticCategory: antibacterial
# [3] = TherapeuticCategory: antineoplastic
# [4] = TherapeuticCategory: anxiolytic
# [5] = TherapeuticCategory: sedative, hypnotic
# [6] = TherapeuticCategory: antidepressant
smiles,measurement,setting,value
C#C[C@]1(OC(C)=O)CC[C@H]2[C@@H]3CCC4=C[C@@H](OC(C)=O)CC[C@@H]4[C@H]3CC[C@@]21C,maximum recommended daily dose (mmol/kg-bw/day),TherapeuticCategory: progestogen,4.34e-05
Nc1nc(N)c2nc(-c3ccccc3)c(N)nc2n1,maximum recommended daily dose (mmol/kg-bw/day),TherapeuticCategory: diuretic,0.0131
CCCCC1C(=O)NN(c2ccccc2)C1=O (centres undefined),maximum recommended daily dose (mmol/kg-bw/day),[1],0.0215
Cn1nnnc1SCC1=C(C(=O)O)N2C(=O)[C@@H](NC(=O)[C@H](OC=O)c3ccccc3)[C@H]2SC1,maximum recommended daily dose (mmol/kg-bw/day),[2],0.195
O=C1Cc2cc(CCN3CCN(c4nsc5ccccc45)CC3)c(Cl)cc2N1,maximum recommended daily dose (mmol/kg-bw/day),"TherapeuticCategory: antipsychotic, dopamine receptor antagonist, seratonin receptor antagonist",0.00647
C[C@H]1[C@H](NC(=O)/C(=N\OC(C)(C)C(=O)O)c2csc(N)n2)C(=O)N1S(=O)(=O)O,maximum recommended daily dose (mmol/kg-bw/day),[2],0.305
COc1cc(NCc2ccc3nc(N)nc(N)c3c2C)cc(OC)c1OC,maximum recommended daily dose (mmol/kg-bw/day),[3],0.0033
Cn1c(=O)c2c(ncn2CCCNCC(O)c2cc(O)cc(O)c2)n(C)c1=O (centres undefined),maximum recommended daily dose (mmol/kg-bw/day),TherapeuticCategory: bronchodilator,0.00257
CCOC(=O)C1(c2ccccc2)CCN(CCC(C#N)(c2ccccc2)c2ccccc2)CC1,maximum recommended daily dose (mmol/kg-bw/day),"TherapeuticCategory: antiperistaltic, antidiarrheal",0.000736
Cc1c(-c2ccccc2)n(/N=N/n2c(-c3ccccc3)c(C)[n+]3ccccc23)c2cccc[n+]12,maximum recommended daily dose (mmol/kg-bw/day),TherapeuticCategory: skeletal muscle relaxant,0.00165
Nc1nc(=S)c2[nH]cnc2[nH]1,maximum recommended daily dose (mmol/kg-bw/day),[3],0.0324
C[N+](C)(C)C[C@H](O)CC(=O)[O-],maximum recommended daily dose (mmol/kg-bw/day),TherapeuticCategory: antihyperlipoproteinemic,0.307
Cc1ccc(/C(=C\CN2CCCC2)c2cccc(/C=C/C(=O)O)n2)cc1,maximum recommended daily dose (mmol/kg-bw/day),TherapeuticCategory: antihistaminic,0.00153
COc1ccc2c(c1)C(=O)N(CCc1ccc(S(=O)(=O)NC(=O)NC3CCCCC3)cc1)C(=O)C2(C)C,maximum recommended daily dose (mmol/kg-bw/day),TherapeuticCategory: antidiabetic,0.0019
CN(C)[C@@H]1C(=O)C(C(N)=O)=C(O)[C@@]2(O)C(=O)C3=C(O)c4c(O)ccc(Cl)c4[C@@H](O)[C@H]3C[C@@H]12,maximum recommended daily dose (mmol/kg-bw/day),[2],0.0323
CCC(OC(C)=O)C(CC(C)N(C)C)(c1ccccc1)c1ccccc1 (centres undefined),maximum recommended daily dose (mmol/kg-bw/day),TherapeuticCategory: none,0.00659
CN(C)c1ccc2nc3ccc(=[N+](C)C)cc-3sc2c1,maximum recommended daily dose (mmol/kg-bw/day),TherapeuticCategory: antimethemoglobinemic,0.0203
Nc1ncnc2nc[nH]c12,maximum recommended daily dose (mmol/kg-bw/day),TherapeuticCategory: research,0.111
CO[C@H]1C[C@@H]2CC[C@@H](C)[C@@](O)(O2)C(=O)C(=O)N2CCCC[C@H]2C(=O)O[C@H]([C@H](C)C[C@@H]2CC[C@@H](O)[C@H](OC)C2)CC(=O)[C@H](C)/C=C(\C)[C@@H](O)[C@@H](OC)C(=O)[C@H](C)C[C@H](C)/C=C/C=C/C=C/1C,maximum recommended daily dose (mmol/kg-bw/day),TherapeuticCategory: immunosuppressant,0.000148
CC(=O)[C@@]12O[C@](C)(c3ccccc3)O[C@@H]1C[C@H]1[C@@H]3CCC4=CC(=O)CC[C@]4(C)[C@H]3CC[C@@]12C,maximum recommended daily dose (mmol/kg-bw/day),TherapeuticCategory: acne treatment,0.00557
CC(=O)CC(c1ccccc1)c1c(O)c2ccccc2oc1=O (centres undefined),maximum recommended daily dose (mmol/kg-bw/day),TherapeuticCategory: anticoagulant,0.000542
OC(c1ccccc1)(c1ccccc1)C1CCCCN1 (centres undefined),maximum recommended daily dose (mmol/kg-bw/day),TherapeuticCategory: CNS stimulant,0.000374
O=C1CN=C(c2ccccc2)c2cc(Cl)ccc2N1CC1CC1,maximum recommended daily dose (mmol/kg-bw/day),[4],0.00308
CC(=O)Nc1c(I)c(C(=O)O)c(I)c(N(C)C(C)=O)c1I,maximum recommended daily dose (mmol/kg-bw/day),TherapeuticCategory: diagnostic aid,0.159
NCCCNCCSP(=O)(O)O,maximum recommended daily dose (mmol/kg-bw/day),TherapeuticCategory: mucolytic,0.115
CC(=O)O[C@H]1C[C@H](O[C@H]2[C@@H](O)C[C@H](O[C@H]3[C@@H](O)C[C@H](O[C@H]4CC[C@@]5(C)[C@H](CC[C@@H]6[C@@H]5CC[C@]5(C)[C@@H](C7=CC(=O)OC7)CC[C@]65O)C4)O[C@@H]3C)O[C@@H]2C)O[C@H](C)[C@H]1O,maximum recommended daily dose (mmol/kg-bw/day),TherapeuticCategory: cardiotonic,4.13e-06
O=C(c1ccc(F)cc1)C1CCN(CCn2c(=O)[nH]c3ccccc3c2=O)CC1,maximum recommended daily dose (mmol/kg-bw/day),TherapeuticCategory: antihypertensive,0.00336
CC(C)(C#N)c1cc(Cn2cncn2)cc(C(C)(C)C#N)c1,maximum recommended daily dose (mmol/kg-bw/day),TherapeuticCategory: androgen,5.69e-05
OCCN1CCN(CCCN2c3ccccc3Sc3ccc(C(F)(F)F)cc32)CC1,maximum recommended daily dose (mmol/kg-bw/day),TherapeuticCategory: antispsychotic,0.000761
C[C@]12CC[C@H]3[C@@H](CCC4=CC(=O)CC[C@@H]43)[C@@H]1CC[C@@H]2OC(=O)CCc1ccccc1,maximum recommended daily dose (mmol/kg-bw/day),TherapeuticCategory: anabolic steroid,0.00819
CCCCC[C@H](O)/C=C/[C@@H]1[C@H]2C/C(=C/CCCC(=O)O)O[C@H]2C[C@H]1O,maximum recommended daily dose (mmol/kg-bw/day),TherapeuticCategory: platelet aggregation inhibitor,2.84e-08
CCCCCCCCCC(=O)O[C@H]1CC[C@H]2[C@@H]3CCC4=CC(=O)CC[C@@H]4[C@H]3CC[C@]12C,maximum recommended daily dose (mmol/kg-bw/day),TherapeuticCategory: anabolic,0.00777
C=CCC1(C(C)CCC)C(=O)N=C(O)NC1=O (centres undefined),maximum recommended daily dose (mmol/kg-bw/day),[5],0.0128
CCN(C)C(=O)Oc1cccc([C@H](C)N(C)C)c1,maximum recommended daily dose (mmol/kg-bw/day),TherapeuticCategory: cholinesterase inhibitor,0.000799
COc1ccc2c(c1OC)C(=O)O[C@@H]2[C@H]1c2c(cc3c(c2OC)OCO3)CCN1C,maximum recommended daily dose (mmol/kg-bw/day),TherapeuticCategory: antitussive,0.00605
Cc1cc(=O)[nH]c(=S)[nH]1,maximum recommended daily dose (mmol/kg-bw/day),TherapeuticCategory: thyroid inhibitor,0.0703
CCN1CCCC1CNC(=O)c1cc(S(=O)(=O)CC)ccc1OC (centres undefined),maximum recommended daily dose (mmol/kg-bw/day),[6],0.0564
C#C[C@]1(O)CC[C@H]2[C@@H]3CCc4cc(O)ccc4[C@H]3CC[C@@]21C,maximum recommended daily dose (mmol/kg-bw/day),TherapeuticCategory: estrogen,1.69e-06
CC(C)CCON=O,maximum recommended daily dose (mmol/kg-bw/day),TherapeuticCategory: none,0.0427
COCC1=C(C(=O)O)N2C(=O)[C@@H](NC(=O)/C(=N\OC)c3csc(N)n3)[C@H]2SC1,maximum recommended daily dose (mmol/kg-bw/day),[2],0.0234
NC(Cc1cc(I)c(Oc2cc(I)c(O)c(I)c2)c(I)c1)C(=O)O (centres undefined),maximum recommended daily dose (mmol/kg-bw/day),"TherapeuticCategory: thyroid hormone, antihyperlipoproteinemic",6.44e-06
O=c1[nH]cnc2[nH]ncc12,maximum recommended daily dose (mmol/kg-bw/day),TherapeuticCategory: antiurolithic,0.0977
N[C@@H](Cc1cc(I)c(Oc2ccc(O)c(I)c2)c(I)c1)C(=O)O,maximum recommended daily dose (mmol/kg-bw/day),TherapeuticCategory: thyroid hormone,2.57e-06
CCC(C)C1(CC)C(=O)NC(=O)NC1=O (centres undefined),maximum recommended daily dose (mmol/kg-bw/day),[5],0.00942
OCCN(CCO)c1nc(-c2ccccc2)c(-c2ccccc2)o1,maximum recommended daily dose (mmol/kg-bw/day),[1],0.0617
COc1cc(OC)c(C(=O)CCCN2CCCC2)c(OC)c1,maximum recommended daily dose (mmol/kg-bw/day),TherapeuticCategory: peripheral vasodilator,0.0325
CC(=O)OCC1=C(C(=O)O)N2C(=O)[C@@H](NC(=O)Cc3cccs3)[C@H]2SC1,maximum recommended daily dose (mmol/kg-bw/day),[2],0.252
NC[C@@H]1O[C@H](O[C@H]2[C@@H](O)[C@H](O[C@@H]3[C@@H](O)[C@H](N)C[C@H](N)[C@H]3O[C@H]3O[C@H](CO)[C@@H](O)[C@H](O)[C@H]3N)O[C@@H]2CO)[C@H](N)[C@@H](O)[C@@H]1O,maximum recommended daily dose (mmol/kg-bw/day),"TherapeuticCategory: antibacterial, antiamebic",0.0569
CO[C@@]1(NC(=O)C2SC(=C(C(N)=O)C(=O)O)S2)C(=O)N2C(C(=O)O)=C(CSc3nnnn3C)CS[C@@H]21 (some centres undefined),maximum recommended daily dose (mmol/kg-bw/day),[2],0.116
NC[C@H]1O[C@H](O[C@H]2[C@H](O)[C@@H](O[C@H]3O[C@H](CO)[C@@H](O)[C@H](N)[C@H]3O)[C@H](N)C[C@@H]2N)[C@H](O)[C@@H](O)[C@@H]1O,maximum recommended daily dose (mmol/kg-bw/day),[2],0.031
C#CCN1C(=O)CN=C(c2ccccc2)c2cc(Cl)ccc21,maximum recommended daily dose (mmol/kg-bw/day),[4],0.00108
CC(=O)NO,maximum recommended daily dose (mmol/kg-bw/day),"TherapeuticCategory: antiurolithic, antibacterial adjunct",0.222
C#C[C@]1(O)CC[C@H]2[C@@H]3[C@H](C)CC4=C(CCC(=O)C4)[C@H]3CC[C@@]21C,maximum recommended daily dose (mmol/kg-bw/day),TherapeuticCategory: treatment of menopausal syndrome,0.000133
CN(C)CCOC1=Cc2ccccc2Sc2ccc(Cl)cc21,maximum recommended daily dose (mmol/kg-bw/day),TherapeuticCategory: antipsychotic,0.0226
CNCCC=C1c2ccccc2CCc2ccccc21,maximum recommended daily dose (mmol/kg-bw/day),[6],0.00634
CC(=O)OC(C)C[N+](C)(C)C (centres undefined),maximum recommended daily dose (mmol/kg-bw/day),"TherapeuticCategory: cholinergic, diagnostic aid",0.00213
OC[C@@]1(O)OC[C@@H](O)[C@@H](O)[C@@H]1O,maximum recommended daily dose (mmol/kg-bw/day),"TherapeuticCategory: fluid and nutrient replenisher, ferric form as hematinic",2.31
CN(C)CC/C=C1\c2ccccc2COc2ccc(CC(=O)O)cc21,maximum recommended daily dose (mmol/kg-bw/day),"TherapeuticCategory: antihistaminic, antiallergic",0.000987
Cc1onc(-c2ccccc2Cl)c1C(=O)N[C@@H]1C(=O)N2[C@@H]1SC(C)(C)[C@@H]2C(=O)O,maximum recommended daily dose (mmol/kg-bw/day),[2],0.0764
CC1=C(C(=O)O)N2C(=O)[C@@H](NC(=O)[C@H](N)C3=CCC=CC3)[C@H]2SC1,maximum recommended daily dose (mmol/kg-bw/day),[2],0.191
CC(Oc1ccccc1)C(=O)N[C@@H]1C(=O)N2[C@@H]1SC(C)(C)[C@@H]2C(=O)O (some centres undefined),maximum recommended daily dose (mmol/kg-bw/day),[2],0.137
C[C@H]1C[C@H]2[C@@H]3CCC4=CC(=O)C=C[C@]4(C)[C@H]3C(=O)C[C@]2(C)[C@@]1(O)C(=O)CO,maximum recommended daily dose (mmol/kg-bw/day),TherapeuticCategory: glucocorticoid,0.00215
NC(=O)c1cnccn1,maximum recommended daily dose (mmol/kg-bw/day),[2],0.244
COC12CC[C@@]3(C[C@@H]1[C@](C)(O)C(C)(C)C)[C@H]1Cc4ccc(O)c5c4[C@@]3(CCN1CC1CC1)[C@H]2O5,maximum recommended daily dose (mmol/kg-bw/day),TherapeuticCategory: narcotic analgesic,0.00114
Cc1noc(NS(=O)(=O)c2ccc(N)cc2)c1C,maximum recommended daily dose (mmol/kg-bw/day),[2],0.25
CC(C)(C)NCC(O)c1cc(O)cc(O)c1 (centres undefined),maximum recommended daily dose (mmol/kg-bw/day),"TherapeuticCategory: bronchodilator, tocolytic",0.00111
C[C@@H]1O[C@@]2(CS1)CN1CCC2CC1,maximum recommended daily dose (mmol/kg-bw/day),TherapeuticCategory: selective agonist (tear and salivary production),0.00613
CCOc1c(N2CCOCC2)cnn(C)c1=O,maximum recommended daily dose (mmol/kg-bw/day),"TherapeuticCategory: analgesic, anti inflammatory",0.0139
CNCCCC1c2ccccc2C=Cc2ccccc21,maximum recommended daily dose (mmol/kg-bw/day),[6],0.0038
